The numbers were not newly measured in patent US5541094A, “Glyoxylic acid/aminomethylphosphonic acid mixtures prepared using a microbial transformant” (E. I. du Pont de Nemours and Company, priority 1994, dated 1996), which cites them from elsewhere.

The test system of this data set is glycolate oxidase. Particulars: 100 mM; enzyme extracted from tobacco leaves.

Turning to `O=C(O)C(=O)O` [Oxalic acid], the “inhibition of the catalytic action of the glycolate oxidase” value is reported as “inhibit the catalytic action of the glycolate oxidase”.
